Results on 13 compounds are retold here after patent publication US12030878B2 (BRISTOL-MYERS SQUIBB COMPANY, priority 2017, dated 2024).

Holding throughout (assay type): cell-based
For one experiment, the target named is T1, human TLR8 (Homo sapiens, UniProt Q9NR97).
T1 construct: host or cells: HEK-Blue cells
T1 sequence (Q9NR97 27-1041): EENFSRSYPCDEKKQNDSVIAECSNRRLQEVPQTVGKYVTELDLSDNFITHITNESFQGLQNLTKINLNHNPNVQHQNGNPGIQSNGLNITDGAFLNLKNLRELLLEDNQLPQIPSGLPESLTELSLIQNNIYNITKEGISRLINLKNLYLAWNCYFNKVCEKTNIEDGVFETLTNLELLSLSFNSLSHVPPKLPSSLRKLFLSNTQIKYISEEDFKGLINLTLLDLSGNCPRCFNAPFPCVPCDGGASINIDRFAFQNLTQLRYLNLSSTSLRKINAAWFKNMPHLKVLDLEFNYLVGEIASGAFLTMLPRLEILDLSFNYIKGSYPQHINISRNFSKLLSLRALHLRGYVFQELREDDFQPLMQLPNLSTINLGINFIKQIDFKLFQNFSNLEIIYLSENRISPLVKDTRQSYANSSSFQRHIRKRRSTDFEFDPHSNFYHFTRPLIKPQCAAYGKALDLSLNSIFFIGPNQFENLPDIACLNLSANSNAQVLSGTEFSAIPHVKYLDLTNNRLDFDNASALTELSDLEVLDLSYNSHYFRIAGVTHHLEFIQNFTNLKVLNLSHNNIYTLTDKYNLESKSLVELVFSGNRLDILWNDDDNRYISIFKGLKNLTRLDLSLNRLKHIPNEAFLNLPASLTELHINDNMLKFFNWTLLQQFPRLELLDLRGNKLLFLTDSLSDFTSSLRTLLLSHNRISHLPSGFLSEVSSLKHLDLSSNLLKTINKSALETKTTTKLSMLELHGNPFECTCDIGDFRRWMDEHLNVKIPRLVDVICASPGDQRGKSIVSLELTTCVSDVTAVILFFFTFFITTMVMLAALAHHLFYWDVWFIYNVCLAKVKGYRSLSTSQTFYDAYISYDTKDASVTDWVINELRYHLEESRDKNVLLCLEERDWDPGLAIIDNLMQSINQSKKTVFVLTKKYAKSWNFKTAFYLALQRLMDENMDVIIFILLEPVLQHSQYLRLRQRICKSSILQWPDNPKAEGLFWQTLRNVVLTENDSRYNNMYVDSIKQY
As to the kind of experiment: TLR8 inhibition reporter assay (HEK-Blue SEAP). The note with it: HEK-Blue cells overexpressing human TLR8, stimulated with R848 15.9 μM, 22 hour incubation. In outline: (§1)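 HEK-Blue cells with NF-κB/AP-1-driven SEAP reporter; compounds 0.05 nM-50 μM, 30 min pre-treatment at room temperature, then agonist: gardiquimod 7.5 μM (TLR7), R848 15.9 μM (TLR8) or ODN2006 5 nM (TLR9). SEAP read after 22 h at 37 °C; percent inhibition versus agonist-plus-DMSO and reference-inhibitor wells.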
(In a reporter assay the amount or activity of a reporter protein is the signal.)

The next experiment deals with T2, human TLR7 (Homo sapiens, UniProt Q9NYK1).
T2 construct: host or cells: HEK-Blue cells
T2 sequence (Q9NYK1 27-1049): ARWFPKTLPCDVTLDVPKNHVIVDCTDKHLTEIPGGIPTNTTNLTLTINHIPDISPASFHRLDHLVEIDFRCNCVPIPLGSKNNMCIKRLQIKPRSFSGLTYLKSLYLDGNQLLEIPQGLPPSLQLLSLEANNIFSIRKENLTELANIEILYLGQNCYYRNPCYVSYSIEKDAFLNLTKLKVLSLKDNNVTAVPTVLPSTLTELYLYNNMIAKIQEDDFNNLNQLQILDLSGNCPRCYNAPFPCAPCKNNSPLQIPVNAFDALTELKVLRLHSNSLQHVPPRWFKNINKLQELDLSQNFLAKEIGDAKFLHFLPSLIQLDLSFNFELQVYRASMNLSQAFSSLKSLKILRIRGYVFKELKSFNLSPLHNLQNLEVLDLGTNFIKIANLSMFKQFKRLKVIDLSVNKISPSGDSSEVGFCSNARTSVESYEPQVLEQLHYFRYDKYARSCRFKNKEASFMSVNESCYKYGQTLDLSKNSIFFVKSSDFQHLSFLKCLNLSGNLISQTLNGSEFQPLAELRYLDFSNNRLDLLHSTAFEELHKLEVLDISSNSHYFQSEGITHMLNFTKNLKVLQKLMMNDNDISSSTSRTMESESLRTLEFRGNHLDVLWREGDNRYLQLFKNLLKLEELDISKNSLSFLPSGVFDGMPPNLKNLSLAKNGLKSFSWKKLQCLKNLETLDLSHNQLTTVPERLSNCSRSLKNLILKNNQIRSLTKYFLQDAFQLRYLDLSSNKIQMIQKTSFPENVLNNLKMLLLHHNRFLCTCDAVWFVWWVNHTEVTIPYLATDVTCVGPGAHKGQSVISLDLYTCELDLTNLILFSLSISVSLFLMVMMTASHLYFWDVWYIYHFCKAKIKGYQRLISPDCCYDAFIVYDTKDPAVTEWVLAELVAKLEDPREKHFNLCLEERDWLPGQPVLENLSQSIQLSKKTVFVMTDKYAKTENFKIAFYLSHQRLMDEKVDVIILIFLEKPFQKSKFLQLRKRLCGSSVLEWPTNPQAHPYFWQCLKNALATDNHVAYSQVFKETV
Briefly: TLR7 inhibition reporter assay (HEK-Blue SEAP). The settings on record: HEK-Blue cells overexpressing human TLR7, stimulated with gardiquimod 7.5 μM, 22 hour incubation. The gist of the method: as §1

The target of a further experiment is T3, human TLR9 (Homo sapiens, UniProt Q9NR96).
T3 construct: host or cells: HEK-Blue cells
T3 sequence (Q9NR96 26-1032): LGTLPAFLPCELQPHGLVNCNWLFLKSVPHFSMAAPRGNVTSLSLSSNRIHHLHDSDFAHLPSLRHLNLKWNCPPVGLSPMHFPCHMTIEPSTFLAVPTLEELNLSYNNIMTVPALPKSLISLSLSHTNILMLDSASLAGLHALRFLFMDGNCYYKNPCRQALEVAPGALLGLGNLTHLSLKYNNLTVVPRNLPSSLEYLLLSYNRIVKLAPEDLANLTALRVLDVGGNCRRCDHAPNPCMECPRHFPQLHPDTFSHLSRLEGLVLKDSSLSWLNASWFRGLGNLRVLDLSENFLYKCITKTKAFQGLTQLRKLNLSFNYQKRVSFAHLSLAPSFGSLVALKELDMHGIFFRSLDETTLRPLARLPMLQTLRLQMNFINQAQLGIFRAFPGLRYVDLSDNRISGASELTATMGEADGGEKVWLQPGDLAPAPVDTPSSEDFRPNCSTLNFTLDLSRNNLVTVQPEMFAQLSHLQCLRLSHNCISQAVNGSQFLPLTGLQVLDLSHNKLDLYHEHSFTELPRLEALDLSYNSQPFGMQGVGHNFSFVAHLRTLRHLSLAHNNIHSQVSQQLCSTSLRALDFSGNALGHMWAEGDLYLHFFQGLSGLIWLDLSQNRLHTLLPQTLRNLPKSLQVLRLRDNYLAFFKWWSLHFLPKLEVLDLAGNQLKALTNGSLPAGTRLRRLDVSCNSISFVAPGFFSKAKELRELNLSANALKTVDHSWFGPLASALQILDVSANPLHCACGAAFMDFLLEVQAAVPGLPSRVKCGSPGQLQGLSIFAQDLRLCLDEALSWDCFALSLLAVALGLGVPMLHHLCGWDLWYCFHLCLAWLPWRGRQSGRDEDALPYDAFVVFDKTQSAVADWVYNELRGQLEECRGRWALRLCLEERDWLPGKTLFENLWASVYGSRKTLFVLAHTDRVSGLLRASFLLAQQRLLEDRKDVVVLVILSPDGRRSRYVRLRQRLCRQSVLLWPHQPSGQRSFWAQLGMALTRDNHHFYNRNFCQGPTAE
As to the kind of experiment: TLR9 inhibition reporter assay (HEK-Blue SEAP). The settings on record: HEK-Blue cells overexpressing human TLR9, stimulated with ODN2006 5 nM, 22 hour incubation. In outline:
as §1

As a reminder, the IC50 is the concentration that gives 50% inhibition. A higher IC50 goes with lower potency. On to `COc1ccc(-c2[nH]c3ccc(OCC(=O)N(C)C4CCCNC4)cc3c2C(C)C)cc1OC` (stereo not drawn) [Example 127, 2-((2-(3,4-dimethoxyphenyl)-3-isopropyl-1H-indol-5-yl)oxy)-N-methyl-N-(piperidin-3-yl)acetamide], for which the half-maximal inhibitory concentration (IC50) at human TLR8 was determined as 15.3 nM; on human TLR7 it was 35.2 nM; against human TLR9, 858 nM.

As to `COc1ccc(-c2[nH]c3ccc(OCC(=O)NC4CCCC(N)C4)cc3c2C(C)C)cc1OC` (stereo not drawn) [Example 128, N-(3-aminocyclohexyl)-2-((2-(3,4-dimethoxyphenyl)-3-isopropyl-1H-indol-5-yl)oxy) acetamide], the figures for the half-inhibitory concentration (IC50) at human TLR8, against human TLR7 and against human TLR9 were 54.2 nM, 62.1 nM and 576 nM, respectively.

As to `COc1ccc(-c2[nH]c3ccc(OCC(=O)N4CCNCC4)cc3c2C(C)C)cc1OC` [Example 129, 2-((2-(3,4-dimethoxyphenyl)-3-isopropyl-1H-indol-5-yl)oxy)-1-(piperazin-1-yl)ethan-1-one], the IC50 on human TLR8 was found to be 45.1 nM; against human TLR7, 57.9 nM; against human TLR9, 2610 nM.

`COc1ccc(-c2[nH]c3ccc(OCC(=O)N[C@@H]4CCCC[C@H]4N)cc3c2C(C)C)cc1OC` [Example 130, N-((1R,2R)-2-aminocyclohexyl)-2-((2-(3,4-dimethoxyphenyl)-3-isopropyl-1H-indol-5-yl)oxy)acetamide]: the IC50 worked out at 18.7 nM on human TLR8, 398 nM against human TLR7 and 2060 nM at human TLR9.

As to `COc1ccc(-c2[nH]c3ccc(OCC(=O)NC4CCC(N)CC4)cc3c2C(C)C)cc1OC` (stereo not drawn) [Example 131, N-(4-aminocyclohexyl)-2-((2-(3,4-dimethoxyphenyl)-3-isopropyl-1H-indol-5-yl)oxy) acetamide], the half-inhibitory concentration (IC50) at human TLR8 worked out at 18.3 nM; against human TLR7, 293 nM; against human TLR9, 908 nM.

With `COc1ccc(-c2[nH]c3ccc(OCC(=O)N4C[C@H]5C[C@@H]4CN5)cc3c2C(C)C)cc1OC` [Example 132, 1-((1R,4R)-2,5-diazabicyclo[2.2.1]heptan-2-yl)-2-((2-(3,4-dimethoxyphenyl)-3-isopropyl-1H-indol-5-yl)oxy)ethan-1-one], the IC50 came to 15.8 nM against human TLR8, 58.6 nM against human TLR7 and 2010 nM against human TLR9.

In the case of `COc1ccc(-c2[nH]c3ccc(OCC(=O)NCC4(O)CCN(C)CC4)cc3c2C(C)C)cc1OC` [Example 133, 2-((2-(3,4-dimethoxyphenyl)-3-isopropyl-1H-indol-5-yl)oxy)-N-((4-hydroxy-1-methylpiperidin-4-yl)methyl)acetamide], the IC50 on human TLR8 was determined as 19.7 nM; at human TLR7 it was 557 nM; against human TLR9, 861 nM.

Take `COc1ccc(-c2[nH]c3ccc(OCC(=O)N[C@H]4CCNC4)cc3c2C(C)C)cc1OC` [Example 134, (S)-2-((2-(3,4-dimethoxyphenyl)-3-isopropyl-1H-indol-5-yl)oxy)-N-(pyrrolidin-3-yl)acetamide]: the IC50 against human TLR8 was 11.6 nM; against human TLR7, 98 nM; against human TLR9, 359 nM.

For `COc1ccc(-c2[nH]c3ccc(OCC(=O)N[C@@H]4CCNC4)cc3c2C(C)C)cc1OC` [Example 135, (R)-2-((2-(3,4-dimethoxyphenyl)-3-isopropyl-1H-indol-5-yl)oxy)-N-(pyrrolidin-3-yl)acetamide], the half-maximal inhibitory concentration (IC50) was determined as 24.1 nM on human TLR8, 185 nM on human TLR7 and 1820 nM on human TLR9.

Take `COc1ccc(-c2[nH]c3ccc(OCC(=O)NC4CCNCC4)cc3c2C(C)C)cc1OC` [Example 136, 2-((2-(3,4-dimethoxyphenyl)-3-isopropyl-1H-indol-5-yl)oxy)-N-(piperidin-4-yl)acetamide]: the results for the 50% inhibitory concentration (IC50) on human TLR8, on human TLR7 and at human TLR9 were 37 nM, 126 nM and 777 nM, respectively.

Consider `COc1ccc(-c2[nH]c3ccc(OCC(=O)N[C@@H]4CCCNC4)cc3c2C(C)C)cc1OC` [Example 137, (R)-2-((2-(3,4-dimethoxyphenyl)-3-isopropyl-1H-indol-5-yl)oxy)-N-(piperidin-3-yl)acetamide], for which the figures for the IC50 at human TLR8, on human TLR7 and on human TLR9 were 9.1 nM, 142 nM and 2140 nM, respectively.

Consider `COc1ccc(-c2[nH]c3ccc(OCC(=O)N4CCC(OC5CCNCC5)CC4)cc3c2C(C)C)cc1OC` [Example 138, 2-((2-(3,4-dimethoxyphenyl)-3-isopropyl-1H-indol-5-yl)oxy)-1-(4-(piperidin-4-yloxy)piperidin-1-yl)ethan-1-one], for which the figures for the IC50 against human TLR8, on human TLR7 and against human TLR9 were 24.7 nM, 281 nM and 1920 nM, respectively.

`COc1ccc(-c2[nH]c3ccc(OCC(=O)NC4CCN(C(C)C)CC4)cc3c2C(C)C)cc1OC` [Example 139, 2-((2-(3,4-dimethoxyphenyl)-3-isopropyl-1H-indol-5-yl)oxy)-N-(1-isopropylpiperidin-4-yl)acetamide]: the 50% inhibitory concentration (IC50) amounted to 83.2 nM against human TLR8, 623 nM on human TLR7 and 2440 nM at human TLR9.
